In PMC9574860, “Chemical Toolkit for PARK7: Potent, Selective, and High-Throughput” (Journal of Medicinal Chemistry, 2022):

Experiments:
[1] = molecular target: T1, UCHL1 (Homo sapiens, UniProt P09936); assay: Gel-based competition assay with probe 8RK59, UCHL1 band; format: biochemical; conditions: compound 2 μM, 1 h; PARK7 and UCHL1 1 μM each; then 8RK59 2 μM 30 min; Figure 3B
T1 sequence (P09936 1-223): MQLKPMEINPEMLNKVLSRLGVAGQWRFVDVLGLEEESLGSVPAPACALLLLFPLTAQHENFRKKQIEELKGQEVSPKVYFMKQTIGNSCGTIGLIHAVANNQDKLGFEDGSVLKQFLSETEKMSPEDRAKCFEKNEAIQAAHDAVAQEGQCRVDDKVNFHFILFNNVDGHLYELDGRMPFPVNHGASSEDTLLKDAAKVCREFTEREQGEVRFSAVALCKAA
Method: (§1) To assess the inhibitory potency and selectivity of these compounds toward PARK7 and UCHL1, we performed a gel-based competition assay (Figure 3A).[36] A mixture of equal amounts of PARK7 and UCHL1 (1 μM) was treated with each of the synthesized compounds (2 μM) for 1 h, followed by incubation with fluorescent probe 8RK59 (2 μM) for 30 min. Samples were resolved by SDS-PAGE, and the gel was scanned for fluorescence. Inhibition of PARK7 or UCHL1 is reflected by the disappearance of their corresponding bands (Figure 3B). […] The inhibition potential of JYQ-88 against PARK7 was assessed in a similar assay where PARK7 was incubated with a serial dilution of JYQ-88 before treatment with probe 8RK59 (Figure 3C). A clear inhibition is visible at 0.5 μM, and full inhibition is achieved between 1 and 2 μM. […] The selectivity of JYQ-88 between UCHL1 and PARK7 was further confirmed in a direct competition assay between equal amounts of PARK7 and UCHL1 (Figure 3F). PARK7 inhibition was observed starting from 0.5 μM JYQ-88, whereas inhibition of UCHL1 was only detected at 20 μM. Since JYQ-88 and 8RK64 are enantiomers, we assumed that the interactions with PARK7 should be similar. To investigate how the chiral center influences the selectivity, we solved the crystal structure of the PARK7−JYQ-88 complex with 1.42 Å resolution (Figure 3G, Table S1, PDB 7PA3). The global positioning of the inhibitor in between the two α-helices was similar to that for 8RK64. […] This way, the thiazolo-pyridine part of JYQ-88 is bound in a similar manner as 8RK64 and the earlier observed interactions are largely the same. The formation of the isothiourea moiety, stabilized by the interaction with Glu18, and the interaction between the thiazole amine and the amide NH2 of the Asn76 side chain are still present. However, the interaction between the azidoacetyl carbonyl with the Leu128 backbone carbonyl can no longer be observed due to the rotation of the azidoacetyl moiety. The Lys132 residue also seems to have rotated (compared to Figure 2C).
(§2) The assay was performed in Tris buffer as described above.

[2] = molecular target: T2, PARK7 (Homo sapiens, UniProt Q99497); assay: Gel-based competition assay with probe 8RK59, PARK7 band; format: biochemical; set-up: GST (N, cleaved yes); made in house; host or cells: E. coli BL21(DE3) Rosetta2; conditions: compound 2 μM, 1 h; PARK7 and UCHL1 1 μM each; then 8RK59 2 μM 30 min; Figure 3B
T2 sequence (Q99497 1-189): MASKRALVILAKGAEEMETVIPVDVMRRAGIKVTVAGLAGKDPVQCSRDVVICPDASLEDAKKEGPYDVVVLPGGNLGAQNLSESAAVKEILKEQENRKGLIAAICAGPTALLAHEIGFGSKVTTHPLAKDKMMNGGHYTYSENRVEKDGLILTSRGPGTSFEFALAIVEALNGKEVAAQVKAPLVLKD
Method: as §1, §2

[3] = molecular target: T2, PARK7; assay: DiFMUAc PARK7 activity assay; format: biochemical; set-up: GST (N, cleaved yes); made in house; host or cells: E. coli BL21(DE3) Rosetta2; conditions: for inhibition at 12.5 µM: read-out: DiFMuAc assay %Inhibiton (12.5 µM); for inhibition at 37.5 µM: read-out: DiFMuAc assay %Inhibiton (37.5 µM); for inhibition at 100 µM: read-out: DiFMuAc assay %Inhibiton (100 µM)
Method: Compounds were transferred using a Labcyte Echo550 acoustic dispenser to obtain a 12-point serial dilution of 0.001 to 100 μM. Next, PARK7 (15 μL, final concentration of 0.1 μM) was dispensed with a Biotek MultiFlowFX liquid dispenser and incubated for 1 h, followed by dispensing the substrate DiFMUAc (5 μL, final concentration of 300 μM). The fluorescence intensity (FI) signal was monitored with a BMG Labtech PHERAstar plate reader (λex/em 350/450 nm) for 1 h.
The validation was performed in the PBS buffer with a reaction volume of 20 μL per well in triplicate. […] Next, PARK7 (15 μL, final concentration 0.1 μM) was dispensed with a Biotek MultiFlowFX liquid dispenser and incubated for 2 h, followed by dispensing the substrate DiFMUAc (5 μL, final concentration 300 μM). The FI signal was monitored with a BMG Labtech PHERAstar plate reader (λex/em 350/450 nm) for 1 h. The increase of FI signal compared with reference controls was used to calculate the remaining enzyme activity. The inhibition percentage of these 22 compounds was plotted as a heatmap using GraphPad Prism 9.0.1 software. Color gradients indicate inhibition percentage, no inhibiton (white) and full inhibition (blue).

[4] = molecular target: T2, PARK7; assay: FP assay with Rhodamine110 probe JYQ-107 (IC50 and hit validation); format: binding; set-up: GST (N, cleaved yes); made in house; host or cells: E. coli BL21(DE3) Rosetta2; conditions: for inhibition at 12.5 µM: read-out: FP assay %Inhibiton (12.5 µM); for inhibition at 37.5 µM: read-out: FP assay %Inhibiton (37.5 µM); for inhibition at 100 µM: read-out: FP assay %Inhibiton (100 µM)
Method: The assay was performed using the conditions as described above with a reaction volume of 20 μL per well in triplicate. Stock solutions of JYQ-88 of 1 and 0.1 mM were prepared. […] The FP signal was monitored with a BMG Labtech PHERAstar plate reader (λex/em 480/520 nm) for 2 h.
The validation was performed using the conditions as described above with a reaction volume of 20 μL per well in triplicate. […] The FP signal was monitored with a BMG Labtech PHERAstar plate reader (λex/em 480/520 nm) for 2 h. The relative loss of FP signal compared with reference controls was used to calculate the remaining enzyme activity. Inhibition percentage of these 40 compounds was plotted as a heatmap using GraphPad Prism 9.0.1 software. Color gradients indicate inhibition percentage, no inhibiton (white) and full inhibition (blue).

[5] = 12.5 µM compound, PARK7 0.1 μM, 2 h preincubation, DiFMUAc 300 μM
[6] = 37.5 µM compound, PARK7 0.1 μM, 2 h preincubation, DiFMUAc 300 μM
[7] = 100 µM compound, PARK7 0.1 μM, 2 h preincubation, DiFMUAc 300 μM
[8] = 12.5 µM compound, PARK7 0.2 μM, 1 h preincubation, JYQ-107 20 nM
[9] = 37.5 µM compound, PARK7 0.2 μM, 1 h preincubation, JYQ-107 20 nM
[10] = 100 µM compound, PARK7 0.2 μM, 1 h preincubation, JYQ-107 20 nM

Molecule: N#CN1CC[C@H](C(=O)Nc2nc3c(s2)CN(C(=O)Cc2ccncc2)CC3)C1 [JYQ-76, (S)-1-Cyano-N-(5-(2-(pyridin-4-yl)acetyl)-4,5,6,7-tetrahydrothiazolo[5,4-c]pyridin-2-yl)pyrrolidine-3-carboxamide]
- Inhibition of UCHL1 (disappearance of 8RK59-labeled band) [1]: fully inhibit
- Inhibition of PARK7 (disappearance of 8RK59-labeled band) [2]: less efficiently

Molecule: N#CN1CC[C@H](C(=O)Nc2nc3c(s2)CN(C(=O)CCCCBr)CC3)C1 [JYQ-78, (S)-N-(5-(5-Bromopentanoyl)-4,5,6,7-tetrahydrothiazolo[5,4-c]pyridin-2-yl)-1-cyanopyrrolidine-3-carboxamide]
- Inhibition of UCHL1 (disappearance of 8RK59-labeled band) [1]: fully inhibit
- Inhibition of PARK7 (disappearance of 8RK59-labeled band) [2]: less efficiently

Molecule: CC1CCc2ccccc2N1C(=O)CCl (stereo not shown) [Z220564178]
- inhibition at 12.5 µM [3, 5]: 80.5%
- inhibition at 37.5 µM [3, 6]: 79.6%
- inhibition at 100 µM [3, 7]: 91.4%
- inhibition at 12.5 µM [4, 8]: 100%
- inhibition at 37.5 µM [4, 9]: 100%
- inhibition at 100 µM [4, 10]: 100%

Molecule: (3S)-N-(5-((1S,2R,5R)-Adamantane-2-carbonyl)-4,5,6,7-tetrahydrothiazolo[5,4-c]pyridin-2-yl)-1-cyanopyrrolidine-3-carboxamide [JYQ-83]
- Inhibition of UCHL1 (disappearance of 8RK59-labeled band) [1]: hardly show any inhibition
- Inhibition of PARK7 (disappearance of 8RK59-labeled band) [2]: hardly show any inhibition

Molecule: N#CN1CC[C@H](C(=O)Nc2nc3c(s2)CN(C(=O)c2ccc(Br)cc2)CC3)C1 [JYQ-77, (S)-N-(5-(4-Bromobenzoyl)-4,5,6,7-tetrahydrothiazolo[5,4-c]pyridin-2-yl)-1-cyanopyrrolidine-3-carboxamide]
- Inhibition of UCHL1 (disappearance of 8RK59-labeled band) [1]: hardly show any inhibition
- Inhibition of PARK7 (disappearance of 8RK59-labeled band) [2]: hardly show any inhibition

Molecule: CC(C)CC(=O)NNS(=O)(=O)c1cccc(S(=O)(=O)F)c1 [Z1764309349]
- inhibition at 12.5 µM [3]: 94%
- inhibition at 37.5 µM [3]: 94.6%
- inhibition at 100 µM [3]: 94.4%
- inhibition at 12.5 µM [4]: 100%
- inhibition at 37.5 µM [4]: 100%
- inhibition at 100 µM [4]: 100%

Molecule: O=[N+]([O-])c1ccccc1S(=O)(=O)F [Z3223579620]
- DiFMuAc assay %Inhibiton (12.5 µM) [3, 5]: 99.2%
- DiFMuAc assay %Inhibiton (37.5 µM) [3, 6]: 98.3%
- DiFMuAc assay %Inhibiton (100 µM) [3, 7]: 98.2%
- FP assay %Inhibiton (12.5 µM) [4, 8]: 100.0%
- FP assay %Inhibiton (37.5 µM) [4, 9]: 100.0%
- FP assay %Inhibiton (100 µM) [4, 10]: 100.0%

Molecule: O=C(NNS(=O)(=O)c1cccc(S(=O)(=O)F)c1)C1CCC1 [Z1764398070]
- inhibition at 12.5 µM [3]: 95.7%
- inhibition at 37.5 µM [3]: 98%
- inhibition at 100 µM [3]: 96.8%
- inhibition at 12.5 µM [4]: 100%
- inhibition at 37.5 µM [4]: 100%
- inhibition at 100 µM [4]: 100%

Molecule: CN1C(=O)CC(C(=O)N2CCc3nc(NC(=O)[C@H]4CCN(C#N)C4)sc3C2)[C@@H]1c1cccnc1 (stereo partly drawn) [JYQ-79, (3S)-1-Cyano-N-(5-((2R)-1-methyl-5-oxo-2-(pyridin-3-yl)pyrrolidine-3-carbonyl)-4,5,6,7-tetrahydrothiazolo[5,4-c]pyridin-2-yl)pyrrolidine-3-carboxamide]
- Inhibition of UCHL1 (disappearance of 8RK59-labeled band) [1]: fully inhibit
- Inhibition of PARK7 (disappearance of 8RK59-labeled band) [2]: less efficiently

Molecule: CC(C#N)NS(=O)(=O)c1cccc(S(=O)(=O)F)c1 (stereo not shown) [Z2509451091]
- DiFMuAc assay %Inhibiton (12.5 µM) [3, 5]: 94.5%
- DiFMuAc assay %Inhibiton (37.5 µM) [3, 6]: 95.2%
- DiFMuAc assay %Inhibiton (100 µM) [3, 7]: 94.5%
- FP assay %Inhibiton (12.5 µM) [4, 8]: 100.0%
- FP assay %Inhibiton (37.5 µM) [4, 9]: 100.0%
- FP assay %Inhibiton (100 µM) [4, 10]: 100.0%

Molecule: N#CN1CC[C@H](C(=O)Nc2nc3c(s2)CN(C(=O)c2cn(CC4CCCO4)nn2)CC3)C1 (stereo partly drawn) [JYQ-55, (3S)-1-Cyano-N-(5-(1-((tetrahydrofuran-2-yl)methyl)-1H-1,2,3-triazole-4-carbonyl)-4,5,6,7-tetrahydrothiazolo[5,4-c]pyridin-2-yl)pyrrolidine-3-carboxamide]
- Inhibition of UCHL1 (disappearance of 8RK59-labeled band) [1]: hardly show any inhibition
- Inhibition of PARK7 (disappearance of 8RK59-labeled band) [2]: hardly show any inhibition
- Inhibition of PARK7 in FP assay ([4]; increasing concentrations, 60 min preincubation, Figure S7): no inhibition
